Consider 19 molecules from patent publication US9125913B2, “Bcl-2-selective apoptosis-inducing agents for the treatment of cancer and immune diseases” (AbbVie Inc., priority 2008, dated 2015).

This test deals with GST-Bcl-2. The test can be described thus: TR-FRET binding assay, Bcl-2. Conditions: TR-FRET Ki values. The essentials:
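Compounds serially diluted in DMSO from 50 μM (2× starting concentration, 10% DMSO), mixed with GST-tagged protein, F-Bak peptide probe and Tb-labeled antibody, incubated 3 h at room temperature.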
On the technique in general: In TR-FRET formats the signal depends on donor and acceptor labels being close together.
Regarding `CC1(C)CCC(CN2CCN(c3ccc(C(=O)NS(=O)(=O)c4cnc(NCC5CCOCC5)c(C#N)c4)c(Oc4ccc5[nH]ccc5c4)c3)CC2)=C(c2ccc(Cl)cc2)C1` [EXAMPLE 352, 4-(4-{[2-(4-chlorophenyl)-4,4-dimethylcyclohex-1-en-1-yl]methyl}piperazin-1-yl)-N-({5-cyano-6-[(tetrahydro-2H-pyran-4-ylmethyl)amino]pyridin-3-yl}sulfonyl)-2-(1H-indol-5-yloxy)benzamide], the “Binding selectivity ratio (Bcl-XL Ki/Bcl-2 Ki)” value (“Binding selectivity ratio” for short) is more than 96.7.
The result for `CN(C)C1CCC(Nc2ccc(S(=O)(=O)NC(=O)c3ccc(N4CCN(CC5=C(c6ccc(Cl)cc6)CC(C)(C)CC5)CC4)cc3Oc3cccc4[nH]ccc34)cc2[N+](=O)[O-])CC1` (stereo not shown) [EXAMPLE 202, 4-(4-{[2-(4-chlorophenyl)-4,4-dimethylcyclohex-1-en-1-yl]methyl}piperazin-1-yl)-N-[(4-{[4-(dimethylamino)cyclohexyl]amino}-3-nitrophenyl)sulfonyl]-2-(1H-indol-4-yloxy)benzamide] reads 97.1.
In the case of `O=C(NS(=O)(=O)c1ccc(NC2CCN(S(=O)(=O)c3ccccc3)CC2)c([N+](=O)[O-])c1)c1ccc(N2CCN(Cc3ccccc3-c3ccc(Cl)cc3)CC2)cc1Oc1ccccc1` [Example 157, 4-{4-[(4′-chloro-1,1′-biphenyl-2-yl)methyl]piperazin-1-yl}-N-[(3-nitro-4-{[1-(phenylsulfonyl)piperidin-4-yl]amino}phenyl)sulfonyl]-2-phenoxybenzamide], the “Binding selectivity ratio” value was more than 148.2.
In the case of `CC(C)N(C)CCCNc1ccc(S(=O)(=O)NC(=O)c2ccc(N3CCN(Cc4ccccc4-c4ccc(Cl)cc4)CC3)cc2Oc2ccccc2)cc1[N+](=O)[O-]` [Example 93, 4-{4-[(4′-chloro-1,1′-biphenyl-2-yl)methyl]piperazin-1-yl}-N-{[4-({3-[isopropyl(methyl)amino]propyl}amino)-3-nitrophenyl]sulfonyl}-2-phenoxybenzamide], the “Binding selectivity ratio” value was 60.
As to `CC1(C)CCC(CN2CCN(c3ccc(C(=O)NS(=O)(=O)c4ccc(Nc5ccc(O)cc5)c([N+](=O)[O-])c4)c(Oc4ccc5[nH]ccc5c4)c3)CC2)=C(c2ccc(Cl)cc2)C1` [EXAMPLE 375, 4-(4-{[2-(4-chlorophenyl)-4,4-dimethylcyclohex-1-en-1-yl]methyl}piperazin-1-yl)-N-({4-[(4-hydroxyphenyl)amino]-3-nitrophenyl}sulfonyl)-2-(1H-indol-5-yloxy)benzamide], the “Binding selectivity ratio” value is listed as more than 58.6.
Take `CC1(C)CCC(CN2CCN(c3ccc(C(=O)NS(=O)(=O)c4ccc(NC5CCN(C6Cc7ccccc7C6)CC5)c([N+](=O)[O-])c4)c(Oc4ccc5[nH]ccc5c4)c3)CC2)=C(c2ccc(Cl)cc2)C1` [EXAMPLE 228, 4-(4-{[2-(4-chlorophenyl)-4,4-dimethylcyclohex-1-en-1-yl]methyl}piperazin-1-yl)-N-[(4-{[1-(2,3-dihydro-1H-inden-2-yl)piperidin-4-yl]amino}-3-nitrophenyl)sulfonyl]-2-(1H-indol-5-yloxy)benzamide]: the “Binding selectivity ratio” value is more than 141.4.
With `CC1(C)CCC(CN2CCN(c3ccc(C(=O)NS(=O)(=O)c4cnc(NC5CCN(C6CC6)CC5)c(Cl)c4)c(Oc4cccc5[nH]cnc45)c3)CC2)=C(c2ccc(Cl)cc2)C1` [EXAMPLE 449, 2-(1H-benzimidazol-4-yloxy)-N-({5-chloro-6-[(1-cyclopropylpiperidin-4-yl)amino]pyridin-3-yl}sulfonyl)-4-(4-{[2-(4-chlorophenyl)-4,4-dimethylcyclohex-1-en-1-yl]methyl}piperazin-1-yl)benzamide], the “Binding selectivity ratio” value is listed as 74.4.
On to `CC1(C)CCC(CN2CCN(c3ccc(C(=O)NS(=O)(=O)c4ccc(NCC5CCN(C(=O)OCc6ccccc6)CC5)c([N+](=O)[O-])c4)c(Oc4ccc5[nH]ccc5c4)c3)CC2)=C(c2ccc(Cl)cc2)C1` [EXAMPLE 356, benzyl 4-({[4-({[4-(4-{[2-(4-chlorophenyl)-4,4-dimethylcyclohex-1-en-1-yl]methyl}piperazin-1-yl)-2-(1H-indol-5-yloxy)benzoyl]amino}sulfonyl)-2-nitrophenyl]amino}methyl)piperidine-1-carboxylate], for which the “Binding selectivity ratio” value is more than 131.6.
Regarding `CC1(C)CCC(CN2CCN(c3ccc(C(=O)NS(=O)(=O)c4ccc(NCCCS(C)(=O)=O)c([N+](=O)[O-])c4)c(Oc4cccc5[nH]ccc45)c3)CC2)=C(c2ccc(Cl)cc2)C1` [EXAMPLE 294, 4-(4-{[2-(4-chlorophenyl)-4,4-dimethylcyclohex-1-en-1-yl]methyl}piperazin-1-yl)-2-(1H-indol-4-yloxy)-N-[(4-{[3-(methylsulfonyl)propyl]amino}-3-nitrophenyl)sulfonyl]benzamide], the “Binding selectivity ratio” value stood at 252.
Consider `CC1(C)CCC(CN2CCN(c3ccc(C(=O)NS(=O)(=O)c4cnc(OC[C@H]5CC[C@H](O)CC5)c(Cl)c4)c(Oc4cccc5[nH]ncc45)c3)CC2)=C(c2ccc(Cl)cc2)C1` [EXAMPLE 421, Trans-N-({5-chloro-6-[(4-hydroxycyclohexyl)methoxy]pyridin-3-yl}sulfonyl)-4-(4-{[2-(4-chlorophenyl)-4,4-dimethylcyclohex-1-en-1-yl]methyl}piperazin-1-yl)-2-(1H-indazol-4-yloxy)benzamide], for which the “Binding selectivity ratio” value amounted to 2090.
On to `CN1CCN(c2ccc(S(=O)(=O)NC(=O)c3ccc(N4CCN(CC5=C(c6ccc(Cl)cc6)CC(C)(C)CC5)CC4)cc3Oc3ccc4[nH]ccc4c3)cc2[N+](=O)[O-])CC1` [Example 107, 4-(4-{[2-(4-chlorophenyl)-4,4-dimethylcyclohex-1-en-1-yl]methyl}piperazin-1-yl)-2-(1H-indol-5-yloxy)-N-{[4-(4-methylpiperazin-1-yl)-3-nitrophenyl]sulfonyl}benzamide], for which the “Binding selectivity ratio” value was found to be 62.5.
Consider `O=C(NS(=O)(=O)c1ccc(NCCn2nccn2)c([N+](=O)[O-])c1)c1ccc(N2CCN(Cc3ccccc3-c3ccc(Cl)cc3)CC2)cc1Oc1ccccc1` [Example 165, 4-{4-[(4′-chloro-1,1′-biphenyl-2-yl)methyl]piperazin-1-yl}-N-[(3-nitro-4-{[2-(2H-1,2,3-triazol-2-yl)ethyl]amino}phenyl)sulfonyl]-2-phenoxybenzamide], for which the “Binding selectivity ratio” value is listed as 44.5.
As for `CC1(C)CCC(CN2CCN(c3ccc(C(=O)NS(=O)(=O)c4ccc(NCC5(F)CCOCC5)c([N+](=O)[O-])c4)c(Oc4cccc5[nH]cnc45)c3)CC2)=C(c2ccc(Cl)cc2)C1` [EXAMPLE 441, 2-(1H-benzimidazol-4-yloxy)-4-(4-{[2-(4-chlorophenyl)-4,4-dimethylcyclohex-1-en-1-yl]methyl}piperazin-1-yl)-N-[(4-{[(4-fluorotetrahydro-2H-pyran-4-yl)methyl]amino}-3-nitrophenyl)sulfonyl]benzamide], the “Binding selectivity ratio” value is on record as 2421.9.
Regarding `O=C(NS(=O)(=O)c1ccc(NCCCN2CCOCC2)c([N+](=O)[O-])c1)c1ccc(N2CCN(Cc3ccccc3-c3ccc(Cl)cc3)CC2)cc1Oc1cccc2[nH]ccc12` [Example 58, 4-{4-[(4′-chloro-1,1′-biphenyl-2-yl)methyl]piperazin-1-yl}-2-(1H-indol-4-yloxy)-N-({4-[(3-morpholin-4-ylpropyl)amino]-3-nitrophenyl}sulfonyl)benzamide], the “Binding selectivity ratio” value amounted to 265.5.
For the molecule `CC1(C)CCC(CN2CCN(c3ccc(C(=O)NS(=O)(=O)c4ccc(N[C@@H]5CCN(CC#N)C5)c([N+](=O)[O-])c4)c(Oc4cccc5[nH]cnc45)c3)CC2)=C(c2ccc(Cl)cc2)C1` [EXAMPLE 428, 2-(1H-benzimidazol-4-yloxy)-4-(4-{[2-(4-chlorophenyl)-4,4-dimethylcyclohex-1-en-1-yl]methyl}piperazin-1-yl)-N-[(4-{[(3R)-1-(cyanomethyl)pyrrolidin-3-yl]amino}-3-nitrophenyl)sulfonyl]benzamide], the “Binding selectivity ratio” value turned out to be 5832.
The result for `CC1(C)CCC(CN2CCN(c3ccc(C(=O)NS(=O)(=O)c4ccc(NCC(F)(F)F)c([N+](=O)[O-])c4)c(Oc4ccc5[nH]ccc5c4)c3)CC2)=C(c2ccc(Cl)cc2)C1` [EXAMPLE 344, 4-(4-{[2-(4-chlorophenyl)-4,4-dimethylcyclohex-1-en-1-yl]methyl}piperazin-1-yl)-2-(1H-indol-5-yloxy)-N-({3-nitro-4-[(2,2,2-trifluoroethyl)amino]phenyl}sulfonyl)benzamide] reads 1576.9; that for `CC1(C)CCC(CN2CCN(c3ccc(C(=O)NS(=O)(=O)c4ccc(NC5CCN(S(C)(=O)=O)CC5)c([N+](=O)[O-])c4)c(Oc4ccc5[nH]ccc5c4)c3)CC2)=C(c2ccc(Cl)cc2)C1` [EXAMPLE 335, 4-(4-{[2-(4-chlorophenyl)-4,4-dimethylcyclohex-1-en-1-yl]methyl}piperazin-1-yl)-2-(1H-indol-5-yloxy)-N-[(4-{[1-(methylsulfonyl)piperidin-4-yl]amino}-3-nitrophenyl)sulfonyl]benzamide], more than 1508.2; that for `CC1(C)CCC(CN2CCN(c3ccc(C(=O)NS(=O)(=O)c4ccc(NCC5CCCCC5)c([N+](=O)[O-])c4)c(Oc4ccc5[nH]ccc5c4)c3)CC2)=C(c2ccc(Cl)cc2)C1` [EXAMPLE 259, 4-(4-{[2-(4-chlorophenyl)-4,4-dimethylcyclohex-1-en-1-yl]methyl}piperazin-1-yl)-N-({4-[(cyclohexylmethyl)amino]-3-nitrophenyl}sulfonyl)-2-(1H-indol-5-yloxy)benzamide], more than 330.9.
Turning to `CC1(C)CCC(CN2CCN(c3ccc(C(=O)NS(=O)(=O)c4ccc(N[C@H]5CC[C@H](N6CCOCC6)CC5)c([N+](=O)[O-])c4)c(Oc4cccc5[nH]ncc45)c3)CC2)=C(c2ccc(Cl)cc2)C1` [EXAMPLE 402, Trans-4-(4-{[2-(4-chlorophenyl)-4,4-dimethylcyclohex-1-en-1-yl]methyl}piperazin-1-yl)-2-(1H-indazol-4-yloxy)-N-({4-[(4-morpholin-4-ylcyclohexyl)amino]-3-nitrophenyl}sulfonyl)benzamide], the “Binding selectivity ratio” value amounted to 137.4.
